In patent US6737383B1, “Herbicidal oxadiazolidines” (priority 1999, dated 2004):

Legend:
Setaria faberii (SETFA) = assay: Test F preemergence, alone and in mixture with rimsulfuron, SETFA; format: in vivo; settings: 21 days after treatment, 0-100 scale
Method: (§1) Abutilon theophrasti (ABUTH), Chenopodium album (CHEAL), Amaranthus rudis (AMATA), Setaria faberii (SETFA), Panicum dichotomiflorum (PANDI), and Digitaria sanguinalis (DIGSA) were grown from seed in pots of an artificial potting mixture in a greenhouse. Compounds of the present invention were applied at 70 and 105 g ai/ha preemergence. Rimsulfuron was applied at 8.8 and 17.5 g ai/ha. Mixtures of the compounds of the present invention and rimsulfuron were also applied.
(§2) Following application, the plants were maintained by watering as needed. A fertilizer solution of Peter's 20-20-20 (10 pounds/5 gallons of water) plus Sprint 330, a Iron Chelate micronutrient, (113.5 grams/5 gallons of water) was injected into the water with an Anderson fertilizer injection system to provide approximately 219 ppm of nitrogen with each watering. Artificial lighting was used to supplement natural light to produce a 14 hour photoperiod and: an additional one hour light period was used between 1:00 am to 2:00 am for a night interruption. Greenhouse temperatures were targeted for 27° C. in the day and 21° C. at night. At 21 days after treatment, all plants were evaluated for injury as compared to control plants that were sprayed only with non-phytotoxic solvent.
(§3) Colby's equation was used to calculate the expected additive herbicidal effect of the mixtures of Compound 21 and the mixture partners listed above. […]

field bindweed = assay: Test C postemergence field bindweed; format: in vivo, Convolvulus arvensis; settings: 0 to 100 scale, 0 no effect, 100 complete control
Method in brief: (§4)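 Visual ratings on a 0 to 100 scale, where 0 means no effect and 100 complete control, were made versus untreated controls roughly 14 to 21 days after postemergence treatment. Test compounds were formulated in a non-phytotoxic solvent mixture containing a surfactant.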

surinam grass = assay: Test C postemergence surinam grass; format: in vivo, Brachiaria decumbens; settings: 0 to 100 scale, 0 no effect, 100 complete control
Method: (§5) Compounds evaluated in this test were formulated in a non-phytotoxic solvent mixture which included a surfactant and applied to plants that were grown for various periods of time before treatment (postemergence application). A mixture of sandy loam soil and greenhouse potting mix in a 60:40 ratio was used for the postemergence test.
(§6) Plantings of these crops and weed species were adjusted to produce plants of appropriate size for the postemergence test. All plant species were grown using normal greenhouse practices. Crop and weed species include arrowleaf sida (Sida rhombifolia), barnyardgrass (Echinochloa crus-galli), cocklebur (Xanthium strumarium), common ragweed (Ambrosia elatior), corn (Zea mays), cotton (Gossypium hirsutum), eastern black nightshade (Solanum ptycanthum), fall panicum (Panicum dichotomiflorum), field bindweed (Convolvulus arvensis), giant foxtail (Setaria faberii), hairy beggarticks (Bidens pilosa), ivyleaf morningglory (Ipomoea hederacea), johnsongrass (Sorghum halepense), ladysthumb smartweed (Polygonum persicaria), lambsquarters (Chenopodium album), large crabgrass (Digitaria sanguinalis), purple nutsedge (Cyperus rotundus), redroot pigweed (Amaranthus retroflexus), soybean (Glycine max), surinam grass (Brachiaria decumbens), velvetleaf (Abutilon theophrasti) and wild poinsettia (Euphorbia heterophylla).
(§7) Treated plants and untreated controls were maintained in a greenhouse for approximately 14, to 21 days, after which all treated plants were compared to untreated controls and visually evaluated. Plant response ratings, summarized in Table C, were based upon a 0 to 100 scale where 0 was no effect and 100 was complete control. A dash response (−) means no test result.

cotton = assay: Test C postemergence cotton; format: in vivo, Gossypium hirsutum; settings: 0 to 100 scale, 0 no effect, 100 complete control
Method in brief: as §4

[1] = system: Abutilon theophrasti (ABUTH); assay: Test F preemergence, alone and in mixture with rimsulfuron, ABUTH; format: in vivo; settings: 21 days after treatment, 0-100 scale
Method: as §1, §2, §3

soybean = assay: Test C postemergence soybean; format: in vivo, Glycine max; settings: 0 to 100 scale, 0 no effect, 100 complete control
Method: as §5, §6, §7

[2] = system: Panicum dichotomiflorum (PANDI); assay: Test F preemergence, alone and in mixture with rimsulfuron, PANDI; format: in vivo; settings: 21 days after treatment, 0-100 scale
Method: as §1, §2, §3

wild poinsettia = assay: Test C postemergence wild poinsettia; format: in vivo, Euphorbia heterophylla; settings: 0 to 100 scale, 0 no effect, 100 complete control
Method: as §5, §6, §7

redroot pigweed = assay: Test C postemergence redroot pigweed; format: in vivo, Amaranthus retroflexus; settings: 0 to 100 scale, 0 no effect, 100 complete control
Method: as §5, §6, §7

hairy beggarticks = assay: Test C postemergence hairy beggarticks; format: in vivo, Bidens pilosa; settings: 0 to 100 scale, 0 no effect, 100 complete control
Method: as §5, §6, §7

certain weeds = assay: Test F overall statement on synergism with rimsulfuron (Colby's equation); format: in vivo; settings: combinations with rimsulfuron, preemergence
Method: as §2, with “Abutilon theophrasti (ABUTH), Chenopodium album (CHEAL), Amaranthus rudis (AMATA), Setaria […]), Panicum dichotomiflorum (PANDI), and Digitaria sanguinalis (DIGSA) were grown from seed in pots of an artificial potting mixture in a greenhouse. Compounds of the present invention were applied at 70 and 105 g ai/ha preemergence. Rimsulfuron was applied at 8.8 and 17.5 g ai/ha. Mixtures of the compounds of the present invention and rimsulfuron were also applied. Following” for “Following”, “solvent. […] Colby's equation was used to calculate the expected additive herbicidal effect of the mixtures of Compound 21 and the mixture partners listed above. […]” for “solvent.”

[3] = system: Chenopodium album (CHEAL); assay: Test F preemergence, alone and in mixture with rimsulfuron, CHEAL; format: in vivo; settings: 21 days after treatment, 0-100 scale
Method: as §1, §2, §3

[4] = Alone: Cmpd. rate 70, Rimsulfuron 0
[5] = Alone: Cmpd. rate 105, Rimsulfuron 0

Structure (SMILES): CC(C)N(C(=O)n1oc(=O)n(C(C)C)c1=O)c1ccccc1 [Compound 113]
- SETFA Observed (Setaria faberii (SETFA); [4]): 60%
- SETFA Observed (Setaria faberii (SETFA); [5]): 65%
- Plant response rating Field bindweed (field bindweed; Rate 140 g/ha): 0
- Plant response rating Field bindweed (field bindweed; Rate 280 g/ha): 0
- Plant response rating Field bindweed (field bindweed; Rate 560 g/ha): 50
- Plant response rating Field bindweed (field bindweed; Rate 1120 g/ha): 50
- Plant response rating, Surinam grass (surinam grass; Rate 140 g/ha): 0
- Plant response rating, Surinam grass (surinam grass; Rate 280 g/ha): 40
- Plant response rating, Surinam grass (surinam grass; Rate 560 g/ha): 90
- Plant response rating, Surinam grass (surinam grass; Rate 1120 g/ha): 90
- Plant response rating Cotton (cotton; Rate 140 g/ha): 10
- Plant response rating Cotton (cotton; Rate 280 g/ha): 15
- Plant response rating Cotton (cotton; Rate 560 g/ha): 50
- Plant response rating Cotton (cotton; Rate 1120 g/ha): 80
- ABUTH Observed [1, 4]: 45%
- ABUTH Observed [1, 5]: 65%
- Plant response rating, Soybean (soybean; Rate 140 g/ha): 40
- Plant response rating, Soybean (soybean; Rate 280 g/ha): 70
- Plant response rating, Soybean (soybean; Rate 560 g/ha): 85
- Plant response rating, Soybean (soybean; Rate 1120 g/ha): 85
- PANDI Observed [2, 4]: 100%
- PANDI Observed [2, 5]: 95%
- Plant response rating Wild poinsettia (wild poinsettia; Rate 140 g/ha): 10
- Plant response rating Wild poinsettia (wild poinsettia; Rate 280 g/ha): 50
- Plant response rating Wild poinsettia (wild poinsettia; Rate 560 g/ha): 80
- Plant response rating Wild poinsettia (wild poinsettia; Rate 1120 g/ha): 95
- Plant response rating, Redroot pigweed (redroot pigweed; Rate 140 g/ha): 0
- Plant response rating, Redroot pigweed (redroot pigweed; Rate 280 g/ha): 0
- Plant response rating, Redroot pigweed (redroot pigweed; Rate 560 g/ha): 0
- Plant response rating, Redroot pigweed (redroot pigweed; Rate 1120 g/ha): 90
- Plant response rating H. beggarticks (hairy beggarticks; Rate 140 g/ha): 5
- Plant response rating H. beggarticks (hairy beggarticks; Rate 280 g/ha): 30
- Plant response rating H. beggarticks (hairy beggarticks; Rate 560 g/ha): 30
- Plant response rating H. beggarticks (hairy beggarticks; Rate 1120 g/ha): 50
- Weed control of combination with rimsulfuron compared with expectation from Colby's equation (certain weeds): better control of certain weeds than expected
- CHEAL Observed [3, 4]: 15%
- CHEAL Observed [3, 5]: 35%
